These are literature values, as cited in patent publication US20230008367A1, “COMPOUNDS USEFUL FOR TREATING LIVER DISEASES” (ABIONYX PHARMA SA, priority 2019, published 2023).

This series concerns adults with NASH and fibrosis. To be noted: Phase 3 trial.

`CSc1ccc(C(=O)/C=C/c2cc(C)c(OC(C)(C)C(=O)O)c(C)c2)cc1` [elafibranor]: the “primary endpoint of NASH resolution without worsening of fibrosis” value is “did not demonstrate a statistically significant effect”.
